Assay results from patent US20230121086A1, “RORgT INHIBITOR, PREPARATION METHOD THEREOF AND USE THEREOF” (SUNSHINE LAKE PHARMA CO., LTD., priority 2020, published 2023).

Each compound was assayed against T1, RORγt (Homo sapiens, UniProt P51449) (assay: Fluorescence resonance energy transfer (FRET) test, inhibitory activity of RORγt). Settings: FRET, B-RORγt LBD / Biotin-SRC1; read-out: IC50.
T1 construct: […]
T1 sequence (P51449 269-508 limits assumed): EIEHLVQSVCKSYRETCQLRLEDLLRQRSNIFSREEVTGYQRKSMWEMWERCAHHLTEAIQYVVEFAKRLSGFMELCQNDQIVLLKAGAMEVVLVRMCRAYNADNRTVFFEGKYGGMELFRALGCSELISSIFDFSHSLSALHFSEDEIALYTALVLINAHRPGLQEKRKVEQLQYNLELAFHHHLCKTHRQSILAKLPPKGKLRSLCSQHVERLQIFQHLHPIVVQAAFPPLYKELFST
Format: biochemical

IC50 | Compound
16 nM | CCS(=O)(=O)c1ccc([C@H](CC#N)NC(=O)c2ccc(N3C[C@H](c4ccc(C(F)(F)F)cc4)CC[C@H]3COC(F)F)cc2F)cc1 [Example 111-1, N—((S)-2-cyano-1-(4-(ethylsulfonyl)phenyl)ethyl)-4-((2S,5S)-2-((difluoromethoxy)methyl)-5-(4-(trifluoromethyl)phenyl)piperidin-1-yl)-2-fluorobenzamide]
13 nM | CCS(=O)(=O)c1ccc([C@H](CC#N)NC(=O)c2ccc(N3C[C@@H](c4ccc(C(F)(F)F)cc4)CC[C@H]3COC(F)F)c(F)c2)cc1 [Example 113-2, N—((S)-2-cyano-1-(4-(ethylsulfonyl)phenyl)ethyl)-4-((2S,5R)-2-((difluoromethoxy)methyl)-5-(4-(trifluoromethyl)phenyl)piperidin-1-yl)-3-fluorobenzamide]
23 nM | CCS(=O)(=O)c1ccc([C@H](CC#N)NC(=O)c2ccc(N3C[C@@H](c4ccc(F)cc4)CC[C@H]3COC(F)F)cc2)cc1 [Example 114-2, N—((S)-2-cyano-1-(4-(ethylsulfonyl)phenyl)ethyl)-4-((2S,5R)-2-((difluoromethoxy)methyl)-5-(4-fluorophenyl)piperidin-1-yl)benzamide]
26 nM | CCS(=O)(=O)c1ccc([C@H](CC#N)NC(=O)c2ccc(N3C[C@H](c4ccccc4)CC[C@H]3COC(F)F)cc2)cc1 [Example 115-2, N—((S)-2-cyano-1-(4-(ethylsulfonyl)phenyl)ethyl)-4-((2S,5S)-2-((difluoromethoxy)methyl)-5-phenylpiperidin-1-yl)benzamide]
26 nM | CCS(=O)(=O)c1ccc([C@H](CC#N)NC(=O)c2ccc(N3C[C@H](N4CCC(C(F)(F)F)CC4)CC[C@H]3COC(F)F)cc2)cc1 [Example 117-2, N—((S)-2-cyano-1-(4-(ethylsulfonyl)phenyl)ethyl)-4-((3′R,6′S)-6′-((difluoromethoxy)methyl)-4-(trifluoromethyl)-(1,3′-bipiperidin)-1′-yl)benzamide]
120 nM | CCS(=O)(=O)c1ccc([C@H](CC#N)NC(=O)c2ccc(N3C[C@H](O)C[C@H]3COC(F)F)cc2)cc1 [Example 131, N—((S)-2-cyano-1-(4-(ethylsulfonyl)phenyl)ethyl)-4-((2S,4R) ((difluoromethoxy)methyl)-4-hydroxypyrrolidin-1-yl)benzamide]
104 nM | CCS(=O)(=O)c1ccc([C@H](CC#N)NC(=O)c2ccc(C(O)(C(F)(F)F)C(F)(F)F)cc2)cc1 [Example 143, (S)—N-(2-cyano-1-(4-(ethylsulfonyl)phenyl)ethyl)-4-(1,1,1,3,3,3-hexafluoro-2-hydroxypropan-2-yl)benzamide]
18.2 nM | CCS(=O)(=O)c1ccc([C@H](CNC(=O)OC)NC(=O)c2ccc(N3C[C@@H](Oc4ccc(C(F)(F)F)cc4)C[C@H]3COC(F)F)cc2)cc1 [Example 147, methyl ((R)-2-(4-((2S,4S)-2-((difluoromethoxy)methyl)-4-(4-(trifluoromethyl)phenoxy)pyrrolidin-1-yl)benzoylamino)-2-(4-(ethylsulfonyl)phenyl)ethyl)carbamate]
15.2 nM | CCS(=O)(=O)c1ccc([C@H](CNC=O)NC(=O)c2ccc(N3C[C@@H](Oc4ccc(C(F)(F)F)cc4)C[C@H]3COC(F)F)cc2)cc1 [Example 148]
7.7 nM | CCS(=O)(=O)c1ccc([C@H](COC(N)=O)NC(=O)c2ccc(N3C[C@@H](Oc4ccc(C(F)(F)F)cc4)C[C@H]3COC(F)F)cc2)cc1 [Example 149, (R)-2-(4-((2S,4S)-2-((difluoromethoxy)methyl)-4-(4-(trifluoromethyl)phenoxy)pyrrolidin-1-yl)benzoylamino)-2-(4-(ethylsulfonyl)phenyl)ethyl carbamate]
10 nM | CCS(=O)(=O)c1ccc([C@H](COC(=O)NC)NC(=O)c2ccc(N3C[C@@H](Oc4ccc(C(F)(F)F)cc4)C[C@H]3COC(F)F)cc2)cc1 [Example 150, (R)-2-(4-((2S,4S)-2-((difluoromethoxy)methyl)-4-(4-(trifluoromethyl)phenoxy)pyrrolidin-1-yl)benzoylamino)-2-(4-(ethylsulfonyl)phenyl)ethyl methylcarbamate]
